Test results as given in EP1295874A2, “Retroviral protease inhibiting compounds” (Abbott Laboratories, priority 1995, dated 1997).
Where two headings read alike, the source gives them in different places.

Tests used:
HIV protease = biological target: T1, HIV protease (Human immunodeficiency virus type 1 group M subtype B, UniProt P04585); assay: Fluorogenic Assay for Screening Inhibitors of HIV Protease; assay type: biochemical; conditions: read-out: Percent Inhibition
T1 construct: HIV protease consists of two identical subunits, each of which has 99 amino acid residues
Procedure: The inhibitory potency of the compound of the invention can be determined by the following method.
The compound of the invention is dissolved in DMSO and a small aliquot further diluted with DMSO to 100 times the final concentration desired for testing. The reaction is carried out in a 6 X 50 mm tube in a total volume of 300 microliters. The final concentrations of the components in the reaction buffer are: 125 mM sodium acetate, 1 M sodium chloride, 5 mM dithiothreitol, 0.5 mg/ml bovine serum albumin, 1.3 µM fluorogenic substrate, 2% (v/v) dimethylsulfoxide, pH 4.5. After addition of inhibitor, the reaction mixture is placed in the fluorometer cell holder and incubated at 30°C for several minutes. The reaction is initiated by the addition of a small aliquot of cold HIV protease. The fluorescence intensity (excitation 340 nm, emmision 490 nM) is recorded as a function of time. The reaction rate is determined for the first six to eight minutes. The observed rate is directly proportional to the moles of substrate cleaved per unit time. The percent inhibition is 100 X (1 - (rate in presence of inhibitor)/(rate in absence of inhibitor)).
Fluorogenic substrate: Dabcyl-Gaba-Ser-Gln-Asn-Tyr-Pro-lle-Val-Gln-EDANS wherein DABCYL = 4-(4-dimethylamino-phenyl)azobenzoic acid, Gaba = γ-aminobutyric acid, and EDANS = 5-((2-aminoethyl)amino)-naphthalene-1-sulfonic acid.

HIVIIIB = assay: Antiviral activity (anti-HIV activity) in MT4 cells, MTT readout; assay type: cell-based; conditions: Human immunodeficiency virus 1, MT4, 120 h, read-out: IC50 (µM, 0% plasma)
Source text: (§1) The anti-HIV activity of the compound of the invention can be determined in MT4 cells according to the following procedure. MT4 cells were infected with cell-free supernatant of HIVIIIB (previously frozen with known 50% tissue culture infectious dose (TCID50) at 0.003 multiplicity of infection (MOI) for one hour. After one hour infection, cells were washed twice to remove residual viruses, resuspended in culture media and seeded into 96-well tissue culture plates at 1x10^4 cells per well with various half-log dilutions of compounds. Uninfected cells are included as toxicity and cell controls. RPMI 1640 media (Gibco ) with 10% fetal bovine serum were used as culture media. Various concentrations of human serum (Sigma) 50%, 25% and 12.5% were added to culture media resulting in final concentration of 60%, 35% and 22.5% total serum. All assay plates were incubated in 37 deg. cent. incubator for 5 days. MTT (sigma, 5 mg/ml stock in PBS) was added to all wells at 25 ul per well, incubate for 4 hours. 20%SDS with 0.02 N HCl in water was added at 50 ul per well to lyse cellls. Plates incubated overnight for complete lyses were read on a microtitre plate reader at 570/650 nm wavelengths to determine cell optical density (O.D.). Raw data were analysed for percent inhibition by the following formula: (O.D. test well - O.D. virus control)/(O.D. cell control -O.D. virus control)x100 [formula] The 50% effective concentration (EC50) was calculated by the median effect equation (Chou, 1975,Proc. Int. Cong. Pharmacol. 6th p. 619) to determine the efficacy of compound. The 50% lethal concentration (LC50) was calculated using uninfected MT4 cells.
(§2) Under these conditions, the following data were obtained (n = 4 duplicate determinations: Table 2

[1] = 50% lethal concentration in uninfected MT4 cells (MTT); assay type: cell-based; conditions: human, read-out: LC50
Source text: as §1, §2

[2] = Inhibitor Concentration 0.5 nanomolar

| SMILES | inhibition at 0.0005 µM (HIV protease) [%] | IC50 (HIVIIIB) [µM] | CC50 at 120 h [1] [µM] | inhibition at 0.0005 µM (HIV protease; [2]) [%] | inhibition at 0.001 µM (HIV protease; Inhibitor Concentration 1.0 nanomolar) [%] |
| --- | --- | --- | --- | --- | --- |
| Cc1cccc(C)c1OCC(=O)N[C@@H](Cc1ccccc1)[C@@H](O)C[C@H](Cc1ccccc1)NC(=O)[C@H](C(C)C)N1CCNC1=O [Example 1P, (2S, 3S, 5S)-2-(2,6-dimethylphenoxyacetyl) amino-3-hydroxy-5-[2S-(1-imidazolidin-2-onyl)-3-methyl-butanoyl] amino-1,6-diphenylhexane] | 92.6 | 0.01 | 41.3 | – | – |
| Cc1cccc(C)c1OCC(=O)N[C@@H](Cc1ccccc1)[C@@H](O)C[C@H](Cc1ccccc1)NC(=O)[C@H](C(C)C)N1CCOC1=O [Example 3C, (2S, 3S, 5S)-2-(2,6-Dimethylphenoxyacetyl) amino-3-hydroxy-5-[2S-(3-oxazolidin-2-onyl)-3-methyl-butanoyl] amino-1,6-diphenylhexane] | – | 0.025 | 49.5 | 86.9 | – |
| CC(C)[C@@H](C(=O)N[C@@H](Cc1ccccc1)C[C@H](O)[C@H](Cc1ccccc1)NC(=O)O[C@H]1CO[C@H]2OCC[C@H]21)N1CCN(C)C1=O [Example 4F, (2S,3S,5S)-2-[(3R, 3aS, 6aR)-Bis-tetrahydrofuranyloxy] amino-3-hydroxy-5-[2S-(3-methyl-1-imidazolidin-2-onyl)-3-methylbutanoyl] amino-1,6-diphenylhexane] | – | 0.101 | > 100 | 49.7 | – |
| CC(C)[C@@H](C(=O)N[C@@H](Cc1ccccc1)C[C@H](O)[C@H](Cc1ccccc1)NC(=O)O[C@H]1CO[C@H]2OCC[C@H]21)N1CCNC1=O [Example 5, (2S,3S,5S)-2-[(3R,3aS,6aR)-Bis-tetrahydrofuranyloxy] amino-3-hydroxy-5-[2S-(1-imidazolidin-2-onyl)-3-methylbutanoyl] amino-1,6-diphenylhexane] | – | 0.368 | > 100 | 80.8 | – |
| CC(C)[C@@H](C(=O)N[C@@H](Cc1ccccc1)C[C@H](O)[C@H](Cc1ccccc1)NC(=O)OCc1cncs1)N1CCNC1=O [Example 6F, (2S,3S,5S)-2-(N-((5-Thiazolyl)methoxycarbonyl)amino)-5-((2S-(1-imidazolidin-2-onyl)-3-methyl-butanoyl)-amino)-3-hydroxy-1,6-diphenylhexane] | – | 0.193 | > 100 | 61.4 | – |
| CC(C)(C)[C@@H](C(=O)N[C@@H](Cc1ccccc1)C[C@H](O)[C@H](Cc1ccccc1)NC(=O)OCc1cncs1)N1CCNC1=O [Example 7B, (2S,3S,5S)-2-(N-((5-Thiazolyl)-methoxycarbonyl)amino)-3-hydroxy-5-(2S-(1-imidazolidin-2-onyl)-3,3-dimethylbutanoyl)amino-1,6-diphenylhexane] | – | 0.204 | > 100 | 67.1 | – |
| Cc1cccc(C)c1OCC(=O)N[C@@H](Cc1ccccc1)[C@@H](O)C[C@H](Cc1ccccc1)NC(=O)[C@@H](N1CCNC1=O)C(C)(C)C [Example 8] | – | 0.019 | 17.8 | 55.6 | – |
| Cc1cccc(C)c1OCC(=O)N[C@@H](Cc1ccccc1)[C@@H](O)C[C@H](Cc1ccccc1)NC(=O)[C@H](C(C)C)N1CCNC1=S [Example 9B, (2S,3S,5S)-2-(2,6-Dimethylphenoxyacetyl)amino-3-hydroxy-5-(2S-(1-imidazolidin-2-thionyl)-3-methylbutanoyl)amino-1,6-diphenylhexane] | – | 0.272 | 19.3 | 62.6 | – |
| Cc1cc(N)cc(C)c1OCC(=O)N[C@@H](Cc1ccccc1)[C@@H](O)C[C@H](Cc1ccccc1)NC(=O)[C@H](C(C)C)N1CCNC1=O [Example 10F, (2S,3S,5S)-2-(4-Amino-2,6-dimethylphenoxyacetyl) amino-3-hydroxy-5-(2S-(1-imidazolidin-2-onyl)-3-methyl-butanoyl) amino-1,6-diphenylhexane] | – | 0.047 | 92 | 81 | – |
| Cc1cc(C)c(OCC(=O)N[C@@H](Cc2ccccc2)[C@@H](O)C[C@H](Cc2ccccc2)NC(=O)[C@H](C(C)C)N2CCNC2=O)c(C)c1 [Example 11B, (2S,3S,5S)-2-(2,4,6-Trimethylphenoxyacetyl) amino-3-hydroxy-5-(2S-(1-imidazolidin-2-onyl)-3-methylbutanoyl) amino-1,6-diphenylhexane] | – | 0.19 | 18.2 | 91.1 | – |
| Cc1cc(F)cc(C)c1OCC(=O)N[C@@H](Cc1ccccc1)[C@@H](O)C[C@H](Cc1ccccc1)NC(=O)[C@H](C(C)C)N1CCNC1=O [Example 12B, (2S,3S,5S)-2-(4-Fluoro-2,6-dimethylphenoxyacetyl) amino-3-hydroxy-5-(2S-(1-imidazolidin-2-onyl)-3-methyl-butanoyl) amino-1,6-diphenylhexane] | – | 0.093 | 19.1 | 76.8 | – |
| Cc1ncnc(C)c1OCC(=O)N[C@@H](Cc1ccccc1)[C@@H](O)C[C@H](Cc1ccccc1)NC(=O)[C@H](C(C)C)N1CCNC1=O [Example 13B, (2S,3S,5S)-2-(4,6-Dimethylpyrimidin-5-oxy-acetyl) amino-3-hydroxy-5-(2S-(1-imidazolidin-2-onyl)-3-methyl-butanoyl) amino-1,6-diphenylhexane] | – | – | – | – | 56.2 |
| Cc1ccnc(C)c1OCC(=O)N[C@@H](Cc1ccccc1)[C@@H](O)C[C@H](Cc1ccccc1)NC(=O)[C@@H](N1CCNC1=O)C(C)(C)C [Example 14D, (2S,3S,5S)-2-(2,4-Dimethyl-pyridin-3-oxy-acetyl) amino-3-hydroxy-5-(2S-(1-imidazolidin-2-onyl)-3,3-dimethylbutanoyl) amino-1,6-diphenylhexane] | – | 0.053 | > 100 | 52.7 | – |
| Cc1ccnc(C)c1OCC(=O)N[C@@H](Cc1ccccc1)[C@@H](O)C[C@H](Cc1ccccc1)NC(=O)[C@H](C(C)C)N1CCNC1=O [Example 15, (2S,3S,5S)-2-(2,4-Dimethyl-pyridin-3-oxy-acetyl) amino-3-hydroxy-5-(2S-(1-imidazolidin-2-onyl)-3-methyl-butanoyl) amino-1,6-diphenylhexane] | – | 0.119 | > 100 | 48 | – |
| Cc1cccc(C)c1OCC(=O)N[C@@H](Cc1ccccc1)[C@@H](O)C[C@H](Cc1ccccc1)NC(=O)[C@H](C(C)C)N1CCCC1=O [Example 17C, (2S,3S,5S)-2-(2,6-Dimethylphenoxyacetyl) amino-3-hydroxy-5-(2S-(1-pyrrolidin-2-onyl)-3-methyl-butanoyl) amino-1,6-diphenylhexane] | – | 0.051 | 19 | 87.2 | – |
| Cc1cccc(C)c1CCC(=O)N[C@@H](Cc1ccccc1)[C@@H](O)C[C@H](Cc1ccccc1)NC(=O)[C@H](C(C)C)N1CCCNC1=O [Example 20D, (2S,3S,5S)-2-(3-(2,6-Dimethylphenyl)propanoyl) amino-3-hydroxy-5-(2S-(1-tetrahydropyrimidin-2-onyl)-3-methyl-butanoyl) amino-1,6-diphenylhexane] | – | 0.283 | 24.1 | – | – |
| CC(C)[C@@H](C(=O)N[C@@H](Cc1ccccc1)C[C@H](O)[C@H](Cc1ccccc1)NC(=O)O[C@@H]1CCS(=O)(=O)[C@@H]1C(C)C)N1CCCNC1=O [Example 22E, (2S,3S,5S)-2-(cis(±)-1,1-dioxo-2-isopropyl-3-tetrahydrothiophenoxy)amino-3-hydroxy-5-(2S-(1-tetrahydropyrimid-2-onyl)-3-methylbutanoyl)amino-1,6-diphenylhexane] | – | – | – | 71.8 | – |
| Cc1cccc(C)c1OCC(=O)N[C@@H](Cc1ccccc1)[C@@H](O)C[C@H](Cc1ccccc1)NC(=O)[C@H](C(C)C)n1ccc(=O)[nH]c1=O [Example 23C, (2S,3S,5S)-2-(2,6-Dimethylphenoxyacetyl) amino-3-hydroxy-5-(2S-(1-dihydropyrimid-2,4-dionyl)-3-methyl-butanoyl) amino-1,6-diphenylhexane] | – | – | – | 86 | – |
